Test in all cases: AlphaScreen Assay
The target in one experiment is T1, Ephrin type-B receptor 4 (Homo sapiens, UniProt P54760).
T1 sequence (P54760 whole entry): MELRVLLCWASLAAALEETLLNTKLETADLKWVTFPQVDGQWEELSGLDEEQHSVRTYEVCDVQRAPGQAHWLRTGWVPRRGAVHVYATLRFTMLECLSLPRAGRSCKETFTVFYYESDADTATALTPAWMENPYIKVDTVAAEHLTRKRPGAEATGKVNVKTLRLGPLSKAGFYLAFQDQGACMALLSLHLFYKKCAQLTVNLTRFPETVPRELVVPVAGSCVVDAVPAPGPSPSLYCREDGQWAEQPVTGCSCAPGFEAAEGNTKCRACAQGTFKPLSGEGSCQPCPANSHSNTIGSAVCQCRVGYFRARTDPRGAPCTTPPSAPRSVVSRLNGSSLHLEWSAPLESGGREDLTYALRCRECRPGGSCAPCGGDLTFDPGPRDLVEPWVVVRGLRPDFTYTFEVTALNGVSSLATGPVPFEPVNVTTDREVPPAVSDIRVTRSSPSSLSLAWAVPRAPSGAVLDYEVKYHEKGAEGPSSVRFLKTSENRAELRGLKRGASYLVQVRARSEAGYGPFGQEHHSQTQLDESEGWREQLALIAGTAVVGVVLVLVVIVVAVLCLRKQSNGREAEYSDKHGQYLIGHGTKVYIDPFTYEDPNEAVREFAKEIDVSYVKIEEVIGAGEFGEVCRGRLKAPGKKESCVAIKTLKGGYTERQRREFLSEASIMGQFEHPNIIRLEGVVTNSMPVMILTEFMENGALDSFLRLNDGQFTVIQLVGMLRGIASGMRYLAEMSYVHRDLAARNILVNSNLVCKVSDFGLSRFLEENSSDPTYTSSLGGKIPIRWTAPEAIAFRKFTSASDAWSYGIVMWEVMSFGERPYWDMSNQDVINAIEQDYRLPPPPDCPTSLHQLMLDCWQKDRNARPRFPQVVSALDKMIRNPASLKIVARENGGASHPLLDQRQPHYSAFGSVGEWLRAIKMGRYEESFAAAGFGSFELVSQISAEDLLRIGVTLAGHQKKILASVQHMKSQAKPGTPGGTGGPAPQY

The target in experiment [1] is Vascular endothelial growth factor receptor 2 (Homo sapiens, UniProt P35968).
Protocol: (§1) In AlphaScreen, when the donor and acceptor beads are close in proximity, a series of photochemical events will give rise to a fluorescent signal upon light activation. Here we use biotinylated poly-(Glu, Tyr) 4:1 as the kinase substrate, streptavidin-coated donor beads and anti-phosphortyrosine antibody PY100-coated acceptor beads. […] Compounds, ATP, biotinylated poly-(Glu, Tyr) and kinases are mixed in a volume of 20 μL for 1 hr at ambient temperature using Greiner 384-well white clear bottom medium binding plates. Then 10 uL solution containing 15-30 mg/mL AlphaScreen beads, 75 mM Hepes, pH 7.4, 300 mM NaCl, 120 mM EDTA, 0.3% BSA and 0.03% Tween-20 is added to each well. After 2-16 hr incubation of the beads, plates are read in a Perkin Elmer AlphaQuest reader (available from PerkinElmer Life and Analytical Sciences, Inc., of Boston Mass.).
The target of another experiment is Ephrin type-A receptor 2 (Homo sapiens, UniProt P29317).

The structures appear in SMILES notation.

Sequence of Ephrin type-A receptor 2 (P29317 whole entry): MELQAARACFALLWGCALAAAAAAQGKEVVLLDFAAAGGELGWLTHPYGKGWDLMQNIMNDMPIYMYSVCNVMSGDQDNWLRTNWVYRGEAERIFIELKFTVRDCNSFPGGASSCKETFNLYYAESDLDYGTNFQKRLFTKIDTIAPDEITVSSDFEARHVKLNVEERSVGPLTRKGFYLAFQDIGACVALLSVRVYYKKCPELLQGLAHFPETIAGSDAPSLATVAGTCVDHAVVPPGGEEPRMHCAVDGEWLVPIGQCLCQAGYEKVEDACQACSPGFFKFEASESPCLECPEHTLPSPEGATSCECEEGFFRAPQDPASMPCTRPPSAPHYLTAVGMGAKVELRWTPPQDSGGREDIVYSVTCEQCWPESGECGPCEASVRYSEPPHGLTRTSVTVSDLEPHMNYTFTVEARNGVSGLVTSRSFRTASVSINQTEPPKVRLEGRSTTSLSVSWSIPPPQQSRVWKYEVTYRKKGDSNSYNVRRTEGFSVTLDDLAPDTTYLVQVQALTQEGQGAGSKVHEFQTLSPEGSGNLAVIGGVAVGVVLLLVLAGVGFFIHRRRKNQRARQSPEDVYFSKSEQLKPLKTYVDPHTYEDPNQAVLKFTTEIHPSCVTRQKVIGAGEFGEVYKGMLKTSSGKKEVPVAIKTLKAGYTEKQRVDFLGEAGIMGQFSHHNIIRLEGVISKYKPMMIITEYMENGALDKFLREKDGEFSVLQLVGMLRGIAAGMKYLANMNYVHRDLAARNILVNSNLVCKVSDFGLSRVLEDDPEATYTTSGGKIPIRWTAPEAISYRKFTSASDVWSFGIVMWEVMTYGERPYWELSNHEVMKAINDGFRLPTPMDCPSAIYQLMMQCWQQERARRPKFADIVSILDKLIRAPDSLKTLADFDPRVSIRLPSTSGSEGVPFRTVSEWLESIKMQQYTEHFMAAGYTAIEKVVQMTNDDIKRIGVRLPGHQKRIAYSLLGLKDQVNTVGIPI
Sequence of Vascular endothelial growth factor receptor 2 (P35968 whole entry): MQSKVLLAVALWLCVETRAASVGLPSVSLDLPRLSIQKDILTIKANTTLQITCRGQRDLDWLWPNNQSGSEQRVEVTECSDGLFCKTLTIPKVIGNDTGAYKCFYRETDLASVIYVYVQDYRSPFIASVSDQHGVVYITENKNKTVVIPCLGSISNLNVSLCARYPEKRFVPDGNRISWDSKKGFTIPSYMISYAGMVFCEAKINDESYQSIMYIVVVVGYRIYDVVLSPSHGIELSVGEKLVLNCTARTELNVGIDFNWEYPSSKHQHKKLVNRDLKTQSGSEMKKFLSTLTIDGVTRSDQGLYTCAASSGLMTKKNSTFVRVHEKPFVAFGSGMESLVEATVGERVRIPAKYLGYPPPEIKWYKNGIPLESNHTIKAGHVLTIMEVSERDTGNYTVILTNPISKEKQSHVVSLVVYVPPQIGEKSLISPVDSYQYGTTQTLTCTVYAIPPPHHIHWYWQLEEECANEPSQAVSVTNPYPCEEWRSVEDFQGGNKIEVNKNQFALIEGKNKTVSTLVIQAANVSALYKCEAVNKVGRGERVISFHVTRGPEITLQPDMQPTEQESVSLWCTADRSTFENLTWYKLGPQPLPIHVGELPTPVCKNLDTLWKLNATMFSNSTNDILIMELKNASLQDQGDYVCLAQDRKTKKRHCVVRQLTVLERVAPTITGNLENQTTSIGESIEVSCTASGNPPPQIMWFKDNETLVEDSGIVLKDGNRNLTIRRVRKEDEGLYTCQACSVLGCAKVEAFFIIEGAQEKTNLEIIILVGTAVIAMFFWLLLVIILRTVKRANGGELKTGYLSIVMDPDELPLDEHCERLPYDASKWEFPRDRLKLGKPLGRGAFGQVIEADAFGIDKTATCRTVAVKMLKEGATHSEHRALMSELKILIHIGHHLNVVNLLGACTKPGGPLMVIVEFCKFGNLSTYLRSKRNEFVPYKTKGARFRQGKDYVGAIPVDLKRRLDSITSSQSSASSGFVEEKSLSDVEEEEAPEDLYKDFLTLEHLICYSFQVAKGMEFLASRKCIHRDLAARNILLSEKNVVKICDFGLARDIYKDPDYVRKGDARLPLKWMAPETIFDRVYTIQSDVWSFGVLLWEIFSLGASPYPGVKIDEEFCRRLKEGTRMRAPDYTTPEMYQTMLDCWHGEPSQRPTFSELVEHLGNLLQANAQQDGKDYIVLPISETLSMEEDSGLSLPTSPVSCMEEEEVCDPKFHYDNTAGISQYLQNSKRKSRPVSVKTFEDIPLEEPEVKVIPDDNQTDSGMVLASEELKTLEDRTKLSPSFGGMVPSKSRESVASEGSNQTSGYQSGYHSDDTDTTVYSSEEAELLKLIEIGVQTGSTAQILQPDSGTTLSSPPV
Protocol for Ephrin type-A receptor 2: as §1
Protocol for Ephrin type-B receptor 4: as §1

Broadly, the IC50 is the midpoint of a concentration-inhibition curve. Lower therefore signals higher potency. For `COc1cc2c(Nc3ccc(Cl)c(Cl)c3F)ncnc2cc1OC[C@H]1CN2CCOCC2CO1` (stereo partly drawn) [US9796704, Entry 29], the IC50 entry against Ephrin type-B receptor 4 was “in the range around 525 nM”; in experiment [1], “in the range around 525 nM”; at Ephrin type-A receptor 2, under 50 nM.

In the case of `COc1cc2c(Nc3ccc(Br)c(Cl)c3F)ncnc2cc1OC[C@H]1CN2CCOCC2CO1` (stereo partly drawn) [US9796704, Entry 30], the IC50 at Ephrin type-B receptor 4 was under 50 nM; in experiment [1] it was “in the range around 525 nM”; against Ephrin type-A receptor 2, under 50 nM.

Consider `COc1cc2c(Nc3ccc(F)c(Cl)c3F)ncnc2cc1OCC1CO[C@@H]2[C@@H](OC)CO[C@H]12` (stereo partly drawn) [US9796704, Entry 45], for which the IC50 result (against Ephrin type-B receptor 4; in experiment [1]; against Ephrin type-A receptor 2) was “in the range around 10500 nM” in each case.

For `COc1cc2c(Nc3ccc(Cl)c(Cl)c3)ncnc2cc1OCC1CO[C@@H]2C(OC)CO[C@H]12` (stereo partly drawn) [US9796704, Entry 47], the IC50 entry (against Ephrin type-B receptor 4; in experiment [1]; at Ephrin type-A receptor 2) was “in the range around 10500 nM” throughout.

`C=C1CO[C@@H]2[C@@H](Oc3cc4ncnc(Nc5ccc(Br)c(Cl)c5)c4cc3OC)CO[C@H]12` [US9796704, Entry 81]: the IC50 result (against Ephrin type-B receptor 4; in experiment [1]; at Ephrin type-A receptor 2) was “in the range around 525 nM” throughout.

Consider `COc1cc2c(Nc3ccc(Br)c(Cl)c3)ncnc2cc1O[C@H]1CO[C@@H]2[C@@H](OC)[C@@H](OC)O[C@@H]21` [US9796704, Entry 82], for which the IC50 entry (against Ephrin type-B receptor 4; in experiment [1]; against Ephrin type-A receptor 2) was “in the range around 525 nM” throughout.

For `COc1cc2c(Nc3ccc(Cl)c(Cl)c3F)ncnc2cc1OCC1CCC2CCCCN2C1` (stereo not drawn) [US9796704, Entry 83], the 50% inhibitory concentration (IC50) result (against Ephrin type-B receptor 4; in experiment [1]; at Ephrin type-A receptor 2) was “in the range around 525 nM” throughout.

As to `COc1cc2c(Nc3ccc(F)cc3Cl)ncnc2cc1O[C@@H]1CO[C@@H]2[C@H]1OC[C@H]2F` [US9796704, Entry 85], the IC50 entry (on Ephrin type-B receptor 4; in experiment [1]; on Ephrin type-A receptor 2) was “in the range around 525 nM” in each case.

Consider `COc1cc2c(Nc3ccc(F)cc3Br)ncnc2cc1O[C@@H]1CO[C@@H]2[C@H]1OC[C@H]2F` [US9796704, Entry 86], for which the IC50 result (against Ephrin type-B receptor 4; in experiment [1]; against Ephrin type-A receptor 2) was “in the range around 525 nM” in each case.

Regarding `COc1cc2c(Nc3cccc(Cl)c3F)ncnc2cc1O[C@@H]1CO[C@@H]2[C@H]1OC[C@H]2F` [US9796704, Entry 88], the figures for the IC50 entry (on Ephrin type-B receptor 4; in experiment [1]; at Ephrin type-A receptor 2) were “in the range around 525 nM”, “in the range around 10500 nM” and “in the range around 525 nM”, respectively.

Take `COc1cc2c(Nc3cc(F)ccc3F)ncnc2cc1O[C@@H]1CO[C@@H]2[C@H]1OC[C@H]2F` [US9796704, Entry 91]: the 50% inhibitory concentration (IC50) entry (on Ephrin type-B receptor 4; in experiment [1]; at Ephrin type-A receptor 2) was “in the range around 525 nM” in each case.

Consider `COc1cc2c(Nc3cc(Cl)ccc3F)ncnc2cc1O[C@@H]1CO[C@@H]2[C@H]1OC[C@H]2F` [US9796704, Entry 93], for which the concentration for half-maximal inhibition (IC50) entry (against Ephrin type-B receptor 4; in experiment [1]; on Ephrin type-A receptor 2) was “in the range around 525 nM” in each case.

Turning to `COc1cc2c(Nc3ccc(F)c(Cl)c3)ncnc2cc1O[C@@H]1CO[C@@H]2[C@H]1OC[C@H]2F` [US9796704, Entry 95], the IC50 result (at Ephrin type-B receptor 4; in experiment [1]; against Ephrin type-A receptor 2) was “in the range around 525 nM” in each case.

Consider `COc1cc2c(Nc3c(F)cc(F)cc3F)ncnc2cc1O[C@@H]1CO[C@@H]2[C@H]1OC[C@H]2F` [US9796704, Entry 100], for which the IC50 result (on Ephrin type-B receptor 4; in experiment [1]; on Ephrin type-A receptor 2) was “in the range around 525 nM” each time.

On to `COc1cc2c(Nc3cc(F)c(Oc4ccc(Cl)cc4)c(F)c3)ncnc2cc1O[C@@H]1CO[C@@H]2[C@H]1OC[C@H]2F` [US9796704, Entry 101], for which the IC50 result (against Ephrin type-B receptor 4; in experiment [1]; against Ephrin type-A receptor 2) was “in the range around 525 nM” each time.

`COc1cc2c(Nc3ccc(Br)c(Cl)c3F)ncnc2cc1O[C@@H]1CO[C@@H]2[C@H]1OC[C@H]2F` [US9796704, Entry 102]: the IC50 result (on Ephrin type-B receptor 4; in experiment [1]; against Ephrin type-A receptor 2) was “in the range around 525 nM” in each case.

Regarding `COc1cc2c(Nc3cccc(Cl)c3C)ncnc2cc1O[C@@H]1CO[C@@H]2[C@H]1OC[C@H]2F` [US9796704, Entry 110], the IC50 result (at Ephrin type-B receptor 4; in experiment [1]; against Ephrin type-A receptor 2) was “in the range around 525 nM” each time.

For the compound `COc1cc2c(Nc3ccccc3Cl)ncnc2cc1O[C@@H]1CO[C@@H]2[C@H]1OC[C@H]2F` [US9796704, Entry 112], the IC50 result (against Ephrin type-B receptor 4; in experiment [1]; against Ephrin type-A receptor 2) was “in the range around 525 nM” throughout.

`COc1cc2c(Nc3ccccc3F)ncnc2cc1O[C@@H]1CO[C@@H]2[C@H]1OC[C@H]2F` [US9796704, Entry 113]: the IC50 entry (on Ephrin type-B receptor 4; in experiment [1]; against Ephrin type-A receptor 2) was “in the range around 525 nM” throughout.

As to `COc1cc2c(Nc3ccc(Cl)cc3)ncnc2cc1O[C@@H]1CO[C@@H]2[C@H]1OC[C@H]2F` [US9796704, Entry 116], the IC50 result (against Ephrin type-B receptor 4; in experiment [1]; at Ephrin type-A receptor 2) was “in the range around 525 nM” throughout.

`COc1cc2c(Nc3ccc(Cl)c(C(F)(F)F)c3)ncnc2cc1O[C@@H]1CO[C@@H]2[C@H]1OC[C@H]2F` [US9796704, Entry 121]: the IC50 entry (on Ephrin type-B receptor 4; in experiment [1]; on Ephrin type-A receptor 2) was “in the range around 525 nM” in each case.

Take `COc1cc2c(Nc3cccc(C(F)(F)F)c3F)ncnc2cc1O[C@@H]1CO[C@@H]2[C@H]1OC[C@H]2F` [US9796704, Entry 123]: the half-maximal inhibitory concentration (IC50) result (against Ephrin type-B receptor 4; in experiment [1]; against Ephrin type-A receptor 2) was “in the range around 525 nM” throughout.

As for `COc1cc2c(Nc3cc(C(F)(F)F)ccc3Br)ncnc2cc1O[C@@H]1CO[C@@H]2[C@H]1OC[C@H]2F` [US9796704, Entry 124], the IC50 entry (against Ephrin type-B receptor 4; in experiment [1]; at Ephrin type-A receptor 2) was “in the range around 525 nM” in each case.

For `COc1cc2c(Nc3ccc(F)cc3C(F)(F)F)ncnc2cc1O[C@@H]1CO[C@@H]2[C@H]1OC[C@H]2F` [US9796704, Entry 126], the IC50 result on Ephrin type-B receptor 4 is “in the range around 525 nM”; in experiment [1], “in the range around 10500 nM”; at Ephrin type-A receptor 2 it was “in the range around 525 nM”.

`COc1cc2c(Nc3ccccc3Br)ncnc2cc1O[C@@H]1CO[C@@H]2[C@H]1OC[C@H]2F` [US9796704, Entry 128]: the IC50 result (against Ephrin type-B receptor 4; in experiment [1]; on Ephrin type-A receptor 2) was “in the range around 525 nM” in each case.

`COc1cc2c(Nc3ccc(Br)cc3)ncnc2cc1O[C@@H]1CO[C@@H]2[C@H]1OC[C@H]2F` [US9796704, Entry 130]: the 50% inhibitory concentration (IC50) result (on Ephrin type-B receptor 4; in experiment [1]; on Ephrin type-A receptor 2) was “in the range around 525 nM” each time.

For the compound `COc1cc2c(Nc3ccc(C)c(Br)c3)ncnc2cc1O[C@@H]1CO[C@@H]2[C@H]1OC[C@H]2F` [US9796704, Entry 131], the IC50 entry (against Ephrin type-B receptor 4; in experiment [1]; at Ephrin type-A receptor 2) was “in the range around 525 nM” throughout.

Turning to `COc1cc2c(Nc3ccc(Cl)c(Cl)c3)ncnc2cc1OCc1noc(-c2cccc(C(F)(F)F)c2)n1` [US9796704, Entry 166], the IC50 result on Ephrin type-B receptor 4 and against Ephrin type-A receptor 2 was “in the range around 525 nM” each time.

These data come from BindingDB's records for patent US9796704 (SYMPHONY EVOLUTION, INC., 2017).
